# Experiments:
# p90RSK = p90RSK in vitro kinase assay on heart lysates of STZ-injected mice; assay type: in vivo, mouse
# Procedure: Heart powder was homogenized with 3 vol of lysis buffer and centrifuged at 14,000 g (4° C. for 30 min), and protein concentration were determined. p90RSK was immunoprecipitated through the incubation of 1000 μg protein for each sample with 3 μl of the rabbit polyclonal anti-p90RSK (Santa Cruz, Santa Cruz, Calif.) antibody for 3 hrs, the addition of 40 μl of a 1:1 slurry of protein A/Sepharose beads to the extract/antibody mixture, and then incubation for 1 hour at 4° C. This complex was washed, twice each, in cell lysis buffer described above, LiCl buffer (500 mM LiCl 100 mM Tris-HCl (pH 7.6), 0.1% Triton X-100, 1 mM DTT) and wash buffer (20 mM HEPES, pH 7.2, 2 mM EGTA, 100 μM Na3VO4, 10 mM MgCl2, 1 mM DTT, 0.1% Triton X-100). After the final wash and pelleting, S6 kinase substrate peptide was used to determine p90RSK kinase activity, as previously described (Cavet et al., “14-3-3beta is a p90 Ribosomal S6 Kinase (RSK) Isoform 1-Binding Protein That Negatively Regulates RSK Kinase Activity,” J Biol Chem 278(20):18376-18383 (2003), which is hereby incorporated by reference in its entirety). The in vitro kinase assay was performed according to manufacture's protocol using a long S6 kinase substrate peptide (Upstate) to determine radiolabeled phosphate incorporation by scintillation counter. […]
# [1] = Fasting blood glucose in STZ-induced diabetic mice; assay type: in vivo, mouse; details: 2 weeks after STZ injection (vehicle 107±8 mg/dl)
# Description: After a 6 hrs fast, basal blood samples were colleted from the tip of the tail. All blood samples were immediately measured for glucose using Prestige IQ, Blood Glucose Monitoring System (Home Diagnosis, Inc, Ft. Lauderdale, Fla.).
# Previously, it was reported that PKCP activation is critical in H2O2-mediated p90RSK activation. […] Since the critical role of PKCP activation in diabetes has been extensively studied, it was investigated whether p90RSK is activated in Streptozotocin (STZ)-induced hyperglycemic mice. The current study used STZ-induced diabetic mice, a known useful model for the study of diabetes (Aizawa-Abe et al., “Pathophysiological Role of Leptin in Obesity-related Hypertension,” J Clin Invest 105(9):1243-1252 (2000), which is hereby incorporated by reference in its entirety).
# PRECE = test: Relative quantitative RT-PCR of PRECE mRNA in hearts of STZ-injected mice; assay type: in vivo, mouse; details: STZ injection, NLC mice, after 2 weeks
# Procedure: Total RNA isolation, first-strand cDNA synthesis, and relative quantitative reverse transcription-polyinerase chain reaction (RT-PCR) using Ambion's Competimer technology were performed as we described (Aizawa et al., “Role of Phosphodiesterase 3 in NO/cGMP-Mediated Anti-inflammatory Effects in Vascular Smooth Muscle Cells,” Circ Res 93(5):406-413 (2003), which is hereby incorporated by reference in its entirety). Ambion's competimer technology allows one to modulate the amplification of 18S rRNA in the same linear range as the RNAs under study when amplified under the same condition. The following primers were used for PCR analysis: […]
# H9c2 cells = test: Anoxia/reoxygenation (A/R)-induced apoptosis in transfected H9c2 cells (TUNEL); assay type: cell-based, rat
# Description: Ad.LacZ (LACZ gene in an adenoviral vector) and Ad.DN-RSK were transduced into neonatal rat cardiomyocytes at varying MOI, as shown in FIG. 1. There was a concentration-dependent expression of DN-RSK (Fire 1) with expression greater than endogenous RSK at 100 MOI. WT-RSK, WT-NHE1, and NHE S703A cDNAs were inserted into pLL3.7-IRES-EGFP to make a pLL3.7-WT-RSK-IRES-EGFP expression vector. These vectors were transfected into H9c2 rat embryonic myoblasts using lipofectamine 2000 (Invitrogen, Carlsbad, Calif.). Cells were cultured for 24 hr to allow sufficient protein expression, then cells were exposed to anoxia. Cells were placed for 12 hr in the anoxia chamber (5% CO2 and 95% N2) and after 24 hr, reoxygenation was performed by changing the medium and placing cells in an air incubator (5% CO2 and 95% air). After 24 hr cell death was detected by TUNEL and by cell death detection ELISA kit (Roche Applied Sciences, Indianapolis, Ind.). Only transfected cells identified by EGFP expression were counted to compare the effects of vector alone (pLL3.7-IRES-EGFP) vs. WT-RSK, WT-NHE1 and MHE1-S703A (pLL3.7-WT-RSK-IRES-EGFP, pLL3.7-WT-NHE1-IRES-EGFP and pLL3.7-NHE1-S703A-IRES-EGFP).
# NHE1 [2] = target: T1, NHE1 (Rattus norvegicus, UniProt P26431); test: NHE1 activity (rate of pHi recovery after acid load, BCECF-AM) in neonatal rat cardiomyocytes; assay type: cell-based; details: 100 μM H2O2
# T1 construct: Primary cultures of cardiac myocytes were prepared from ventricles of 1 to 3-day-old neonatal Wistar rats; endogenous in cells; host or cells: primary neonatal Wistar rat ventricular cardiomyocytes, transduced with Ad.LacZ or Ad.DN-RSK; NHE1 itself not transfected
# T1 sequence (P26431 whole entry): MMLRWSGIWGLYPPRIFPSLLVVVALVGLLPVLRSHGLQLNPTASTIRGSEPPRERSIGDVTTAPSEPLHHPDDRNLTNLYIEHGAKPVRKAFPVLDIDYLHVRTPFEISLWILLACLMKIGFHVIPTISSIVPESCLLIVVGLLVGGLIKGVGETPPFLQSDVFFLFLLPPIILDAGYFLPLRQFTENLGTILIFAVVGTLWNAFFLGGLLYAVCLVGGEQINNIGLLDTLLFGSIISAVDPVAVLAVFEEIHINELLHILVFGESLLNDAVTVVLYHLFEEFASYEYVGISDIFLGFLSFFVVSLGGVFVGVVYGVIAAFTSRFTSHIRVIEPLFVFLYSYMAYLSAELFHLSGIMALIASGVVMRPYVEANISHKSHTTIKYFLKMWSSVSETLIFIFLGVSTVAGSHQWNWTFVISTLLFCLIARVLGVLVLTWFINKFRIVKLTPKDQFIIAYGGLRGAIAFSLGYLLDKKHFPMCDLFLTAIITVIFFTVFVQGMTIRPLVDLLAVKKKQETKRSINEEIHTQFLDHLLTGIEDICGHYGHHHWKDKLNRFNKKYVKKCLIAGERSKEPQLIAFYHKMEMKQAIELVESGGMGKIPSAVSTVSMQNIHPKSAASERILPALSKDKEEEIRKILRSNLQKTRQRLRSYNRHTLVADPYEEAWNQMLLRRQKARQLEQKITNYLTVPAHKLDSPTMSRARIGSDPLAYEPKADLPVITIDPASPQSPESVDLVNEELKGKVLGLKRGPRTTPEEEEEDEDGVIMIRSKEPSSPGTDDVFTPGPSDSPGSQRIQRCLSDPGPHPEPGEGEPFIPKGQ
# Procedure: Primary cultures of cardiac myocytes were prepared from ventricles of 1 to 3-day-old neonatal Wistar rats (Akimoto et al., “Heparin and Heparin Sulfate Block Angiotensin II-Induced Hypertrophy in Cultured Neonatal Rat Cardiomyocytes. A possible Role of Intrinsic Heparin-Like Molecules in Regulation of Cardiomyocyte Hypertrophy,” Circulation 93:810-816 (1996), which is hereby incorporated by reference in its entirety). Briefly, cells were dissociated by collagenase II (Worthington Biochem, NJ) from the ventricles and plated at a density of 1×10^5 cells/cm^2 on 25 mm collagen-coated coverslips in Dulbecco's modified Eagle's medium (DMEM) with 10% fetal bovine serum and 10% horse serum. After 6 hrs of plating the isolated cardiomyocytes, 10 μM cytosine arabinoside (Ara C) was added and the cells were cultured 24 hrs, after which the culture medium was changed to DMEM with 10 μM Ara C in 10% fetal bovine serum.
# Isolated neonatal cardiomyocytes were cultured on 25 mm glass coverslips. The intracellular pH indicator BCECF-AM was incubated with DMEM without FBS for 30 min at 37° C. (Ozkan et al., “A Rapid Method for Measuring Intracellular pH Using BCECF-AM,” Biochem Biophys Acta 1572: 143-148 (2002), which is hereby incorporated by reference in its entirety). […] BCECF-AM was excited at 490 and 440 nm, and the emission fluorescence recorded at 500 nm. […]
# [3] = tested on: isolated heart from WT-p90RSK-Tg mice and non-transgenic littermate control (NLC) mice; test: Cardiac damage: CK and LDH release from the isolated heart after ischemia/reperfusion; design: species or system mouse; details: captopril 50 μM pretreatment
# Procedure: Creatine kinase (CK) and lactate dehydrogenase (LDH) were measured by the University of Rochester, Department of Clinical Chemistry, and reported in clinical indices (units/L) as means ±S.D.
# For isolated heart from WT-p90RSK-Tg mice and non-transgenic littermate control (NLC) mice were studied using Langendorff preparation. Animals were anaesthetized with ketamine (50 mg/kg) and xylazine (2.5 mg/kg), i.p., and heparinized (5000 U/kg), i.p., to protect the heart against microthrombi. The chest was opened at the sternum and the heart, after cannulation with a 23 G phalanged stainless steel cannula, quickly removed. The heart was retrogradely perfused through the aorta in a non-circulating Langendorff apparatus with KH buffer (118 mM NaCl, 4.7 mM KCl, 1.2 mM MgSO4, 1.2 mM KH2PO4, 2.5 mM CaCl2, 25 mM NaHCO3, 0.5 mM Na-EDTA and 11 mM glucose) at a constant pressure of 80 mmHg. The buffer was saturated with 95% O2/5% CO2 (v/v, pH 7.4, 37° C.) for 50 min. A homemade water-filled balloon was inserted into the left ventricle through the left atrium and was adjusted to a left ventricular end-diastolic pressure of 5 mmHg during initial equilibration. The distal end of the catheter was connected to an ETH-200 Bridge Amplifier (CB Sciences, Inc) and PowerLab/200 (AD Instruments) data acquisition system via a pressure transducer (DELTRAN II, Utah Medical Products, Inc., Midvale, Utah). […]
# NHE1 [4] = target: NHE1 (Homo sapiens, UniProt P19634); details: cited from earlier work; for mortality in patients experiencing myocardial infarction: clinical trials GUARDIAN and ESCAMI
# Chain of NHE1 (Homo sapiens, UniProt P19634) (P19634 whole entry): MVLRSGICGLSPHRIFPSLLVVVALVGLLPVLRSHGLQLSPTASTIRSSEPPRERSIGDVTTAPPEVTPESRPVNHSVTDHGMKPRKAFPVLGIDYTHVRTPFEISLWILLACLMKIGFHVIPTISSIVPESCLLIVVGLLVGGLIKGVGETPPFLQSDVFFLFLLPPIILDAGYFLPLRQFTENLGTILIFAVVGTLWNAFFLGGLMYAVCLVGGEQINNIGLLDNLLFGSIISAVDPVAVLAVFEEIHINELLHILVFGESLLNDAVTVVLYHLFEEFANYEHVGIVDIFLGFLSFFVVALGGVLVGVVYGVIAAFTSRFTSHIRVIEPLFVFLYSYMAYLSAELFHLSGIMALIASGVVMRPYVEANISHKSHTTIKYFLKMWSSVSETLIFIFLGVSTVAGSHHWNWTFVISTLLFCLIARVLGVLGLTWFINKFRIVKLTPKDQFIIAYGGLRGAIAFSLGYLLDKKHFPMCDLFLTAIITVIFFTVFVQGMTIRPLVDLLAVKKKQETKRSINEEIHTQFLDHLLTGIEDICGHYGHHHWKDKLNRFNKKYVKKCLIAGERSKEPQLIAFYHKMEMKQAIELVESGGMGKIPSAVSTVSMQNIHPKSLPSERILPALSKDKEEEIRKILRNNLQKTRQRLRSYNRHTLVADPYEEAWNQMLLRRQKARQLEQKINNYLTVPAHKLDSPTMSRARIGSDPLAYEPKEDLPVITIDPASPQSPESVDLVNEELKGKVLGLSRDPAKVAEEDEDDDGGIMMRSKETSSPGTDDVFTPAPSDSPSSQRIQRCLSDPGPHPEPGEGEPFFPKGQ
compound,measurement,setting,value
"CN(N=O)C(=O)N[C@H]1C(O)O[C@H](CO)[C@@H](O)[C@@H]1O (mixture of isomers) [STZ, Streptozotocin]",p90RSK activation (in vitro kinase assay),p90RSK; DN-p90RSK-Tg mice + STZ,8009±797 cpm
same,p90RSK activation (in vitro kinase assay),p90RSK; NLC mice + STZ,12991±1810 cpm
same,fasting blood glucose level,[1],224 ± 5 mg/dL
same,PRECE mRNA expression in heart,PRECE,increased
CCN(c1nc(N)c(C(=O)NC(=N)N)nc1Cl)C(C)C [EIPA],apoptosis,H9c2 cells; A/R + NHE-WT transfected H9c2 cells + EIPA,39±4%
same,apoptosis,H9c2 cells; EIPA 5 μM + A/R (12 hr/24 hr) + WT-RSK transfected H9c2 cells,29.9±5.2%
OO [H2O2],increase of NHE1 activity,NHE1 [2]; LacZ expressing cardiomyocytes,3 fold
same,NHE1 activity,NHE1 [2]; LacZ expressing cardiomyocytes (basal 0.16±0.02),0.49±0.13 pHi/min
C[C@H](CS)C(=O)N1CCC[C@H]1C(=O)O [captopril],release of CK and LDH,"[3]; NLC hearts, 40 min global ischemia and 25 min reperfusion",no beneficial effect
same,release of cardiac enzymes (CK and LDH),"[3]; WT-p90RSK-Tg hearts, 20 min ischemia and 25 min reperfusion",significantly reduced
CC(C)c1ccc(C(=O)NC(=N)N)cc1S(C)(=O)=O [cariporide],mortality in patients experiencing myocardial infarction,NHE1 [4],no significant reduction in mortality
same,improvement in LV function,NHE1 [4]; subgroup of patients who underwent coronary artery bypass grafting,25%
Cc1cc(-n2cccc2)c(S(C)(=O)=O)cc1C(=O)NC(=N)N [eniporide],mortality in patients experiencing myocardial infarction,NHE1 [4],no significant reduction in mortality
